From a compilation of properties of binary mixtures (doi:10.1021/acs.jced.2c00096)

Experiment: xn = mol fraction of the nth substance listed
Settings: 100 kPa

CCCC[N+]1(C)CCCC1.O=S(=O)([O-])C(F)(F)F + O
Settings | electrical conductivity [S/m] | viscosity [mPa·s]
288.15 K, x2 = 0.1203 | 0.173 | 196
288.15 K, x2 = 0.1956 | 0.21 | 151.5
288.15 K, x2 = 0.4836 | 0.458 | 56.8
288.15 K, x2 = 0.5819 | 0.603 | 40.25
288.15 K, x2 = 0.6794 | 0.78 | 27.75
288.15 K, x2 = 0.8612 | 1.43 | 10.36
288.15 K, x2 = 0.95 | 1.75 | 3.99
293.15 K, x2 = 0.0597 | 0.188 | 181.1
293.15 K, x2 = 0.1203 | 0.22 | 148.6
293.15 K, x2 = 0.1956 | 0.266 | 116.3
293.15 K, x2 = 0.3766 | 0.426 | 64.1
293.15 K, x2 = 0.4836 | 0.563 | 45
293.15 K, x2 = 0.5819 | 0.732 | 32.19
293.15 K, x2 = 0.6794 | 0.954 | 22.37
293.15 K, x2 = 0.7673 | 1.26 | 15.18
293.15 K, x2 = 0.95 | 2.07 | 3.36
298.15 K, x2 = 0.1203 | 0.276 | 114.9
298.15 K, x2 = 0.1956 | 0.334 | 91
298.15 K, x2 = 0.3197 | 0.453 | 61.1
298.15 K, x2 = 0.4836 | 0.68 | 36.38
298.15 K, x2 = 0.5819 | 0.886 | 26.17
298.15 K, x2 = 0.8612 | 2.04 | 7.14
303.15 K, x2 = 0.0597 | 0.299 | 108.4
303.15 K, x2 = 0.1203 | 0.343 | 90.6
303.15 K, x2 = 0.1956 | 0.406 | 72.5
303.15 K, x2 = 0.3197 | 0.545 | 49.4
303.15 K, x2 = 0.4836 | 0.808 | 29.8
303.15 K, x2 = 0.5819 | 1.04 | 21.59
303.15 K, x2 = 0.6794 | 1.37 | 15.22
303.15 K, x2 = 0.7673 | 1.79 | 10.5
303.15 K, x2 = 0.8612 | 2.38 | 6.05
308.15 K, x2 = 0.0597 | 0.364 | 86.1
308.15 K, x2 = 0.1956 | 0.488 | 58.6
308.15 K, x2 = 0.3197 | 0.647 | 40.48
308.15 K, x2 = 0.4836 | 0.953 | 24.76
308.15 K, x2 = 0.5819 | 1.23 | 18.04
308.15 K, x2 = 0.6794 | 1.6 | 12.8
308.15 K, x2 = 0.7673 | 2.08 | 8.89
308.15 K, x2 = 0.8612 | 2.77 | 5.14
308.15 K, x2 = 0.95 | 3.16 | 2.17
313.15 K, x2 = 0.0597 | 0.435 | 69.4
313.15 K, x2 = 0.1203 | 0.497 | 58.9
313.15 K, x2 = 0.3197 | 0.76 | 33.61
313.15 K, x2 = 0.3766 | 0.866 | 28.63
313.15 K, x2 = 0.4836 | 1.11 | 20.81
313.15 K, x2 = 0.6794 | 1.86 | 10.89
313.15 K, x2 = 0.7673 | 2.4 | 7.6
313.15 K, x2 = 0.8612 | 3.17 | 4.47
313.15 K, x2 = 0.95 | 3.56 | 1.91
318.15 K, x2 = 0.0597 | 0.52 | 56.7
318.15 K, x2 = 0.1956 | 0.68 | 39.82
318.15 K, x2 = 0.3766 | 1.01 | 24.15
318.15 K, x2 = 0.4836 | 1.28 | 17.69
318.15 K, x2 = 0.5819 | 1.63 | 13.03
318.15 K, x2 = 0.6794 | 2.14 | 9.36
318.15 K, x2 = 0.7673 | 2.75 | 6.57
318.15 K, x2 = 0.8612 | 3.61 | 3.9
318.15 K, x2 = 0.95 | 4 | 1.7
323.15 K, x2 = 0.1203 | 0.686 | 40.38
323.15 K, x2 = 0.3197 | 1.03 | 23.95
323.15 K, x2 = 0.3766 | 1.16 | 20.59
323.15 K, x2 = 0.4836 | 1.47 | 15.18
323.15 K, x2 = 0.7673 | 3.11 | 5.73
323.15 K, x2 = 0.8612 | 4.06 | 3.43
328.15 K, x2 = 0.0597 | 0.713 | 39.32
328.15 K, x2 = 0.1203 | 0.796 | 34.03
328.15 K, x2 = 0.1956 | 0.921 | 28.34
328.15 K, x2 = 0.3197 | 1.17 | 20.52
328.15 K, x2 = 0.4836 | 1.67 | 13.15
328.15 K, x2 = 0.5819 | 2.12 | 9.79
328.15 K, x2 = 0.6794 | 2.76 | 7.1
328.15 K, x2 = 0.7673 | 3.5 | 5.04
328.15 K, x2 = 0.8612 | 4.55 | 3.04
328.15 K, x2 = 0.95 | 4.93 | 1.37
333.15 K, x2 = 0.0597 | 0.83 | 33.27
333.15 K, x2 = 0.1203 | 0.918 | 28.94
333.15 K, x2 = 0.1956 | 1.05 | 24.27
333.15 K, x2 = 0.3197 | 1.33 | 17.75
333.15 K, x2 = 0.3766 | 1.48 | 15.39
333.15 K, x2 = 0.4836 | 1.88 | 11.49
333.15 K, x2 = 0.6794 | 3.09 | 6.26
333.15 K, x2 = 0.7673 | 3.91 | 4.46
333.15 K, x2 = 0.8612 | 5.05 | 2.71
333.15 K, x2 = 0.95 | 5.42 | 1.24
